Assay results published in ChEMBL document CHEMBL4346685, “Naphthyl quinoxaline thymidine conjugate is a potent anticancer agent post UVA activation and elicits marked inhibition of tumor growth through vaccination” (Eur J Med Chem, 2019).
The source made the active and inactive calls. The rule behind the calls is not given here.

Experiments:
[1] = test system: Bel-7402; experiment: Cytotoxicity against human Bel7402 cells assessed as reduction in cell viability preincubated for 5 hrs followed by compound washout and measured after 48 hrs by CCK8 assay; type: functional, cell-based
[2] = test system: MCF7; experiment: Cytotoxicity against human MCF7 cells assessed as reduction in cell viability preincubated for 5 hrs followed by compound washout and measured after 48 hrs by CCK8 assay; type: functional, cell-based
[3] = test system: A-375; experiment: Cytotoxicity against human A375 cells assessed as reduction in cell viability preincubated for 5 hrs followed by compound washout and measured after 48 hrs by CCK8 assay; type: functional, cell-based
[4] = Dark toxicity against mouse H22 cells assessed as reduction in cell viability preincubated for 5 hrs followed by compound washout and measured after 48 hrs by CCK8 assay; type: cell-based
[5] = test system: H22; experiment: Induction of immunogenic cell death in mouse H22 cells assessed as increase in extracellular ATP level at 2 uM measured after 5 hrs by chemiluminescence-based assay; type: functional
[6] = test system: H22; experiment: Induction of immunogenic cell death in mouse H22 cells assessed as extracellular ATP level at 2 uM measured after 24 hrs by chemiluminescence-based assay; type: functional
[7] = test system: H22; experiment: Induction of immunogenic cell death in mouse H22 cells assessed as increase in extracellular HMGB1 level at 2 uM incubated for 5 hrs by ELISA; type: functional, cell-based
[8] = test system: H22; experiment: Induction of immunogenic cell death in mouse H22 cells assessed as increase in calreticulin level in cell surface at 2 uM incubated for 5 hrs by Hoechst staining based fluorescence microscopic analysis; type: functional
[9] = test system: H22; experiment: Antitumor activity against mouse H22 cells allografted in immunocompetent Balb/c mouse assessed as inhibition of tumour formation at 2 uM incubated with cells for 5 hrs prior to 20 mins 2 mW/cm2 UVA irradiation post compound washout followed by vaccination and measured within 5 days; type: functional, cell-based
[10] = test system: H22; experiment: Antitumor activity against mouse H22 cells allografted in immunocompetent Balb/c mouse assessed as decrease in lump formation at challenge site at 2 uM incubated with cells for 5 hrs followed by compound washout prior to vaccination and subsequent H22 cells addition 10 days post vaccination and measured over 30 days; type: functional, cell-based
[11] = test system: H22; experiment: Antitumor activity against mouse H22 cells allografted in immunocompetent Balb/c mouse assessed as decrease in lump formation in vaccination site at 2 uM incubated with cells for 5 hrs prior to 20 mins 2 mW/cm2 UVA irradiation post compound washout followed by vaccination and measured over 30 days; type: functional, cell-based
[12] = test system: H22; experiment: Induction of immunogenic cell death in mouse H22 cells assessed as increase in intracellular calreticulin level at 2 uM measured after 5 hrs by flow cytometric analysis; type: functional, cell-based
[13] = test system: Bel-7402; experiment: Antiproliferative activity against human Bel7402 cells assessed as reduction in cell viability preincubated for 5 hrs followed by compound washout and subsequent 3 mW/cm2 UVA irradiation for 20 mins measured 48 hrs post irradiation by CCK8 assay; type: functional, cell-based; conditions: Bel-7402, light or radiation study
[14] = test system: MCF7; experiment: Antiproliferative activity against human MCF7 cells assessed as reduction in cell viability preincubated for 5 hrs followed by compound washout and subsequent 3 mW/cm2 UVA irradiation measured 48 hrs post irradiation by CCK8 assay; type: functional, cell-based; conditions: MCF7, light or radiation study
[15] = test system: A-375; experiment: Antiproliferative activity against human A375 cells assessed as reduction in cell viability preincubated for 5 hrs followed by compound washout and subsequent 3 mW/cm2 UVA irradiation measured 48 hrs post irradiation by CCK8 assay; type: functional, cell-based; conditions: A-375, light or radiation study
[16] = test system: H22; experiment: Antiproliferative activity against mouse H22 cells assessed as reduction in cell viability preincubated for 5 hrs followed by compound washout and subsequent 2 mW/cm2 UVA irradiation measured 48 hrs post irradiation by CCK8 assay; type: functional, cell-based; conditions: H22, light or radiation study
[17] = test system: Bel-7402; experiment: Dark toxicity against human Bel7402 cells up to 500 nM incubated for 5 hrs followed by compound washout and measured after 48 hrs by CCK8 assay; type: cell-based; conditions: bel-7402, 5 h
[18] = test system: MCF7; experiment: Dark toxicity against human MCF7 cells up to 500 nM preincubated for 5 hrs followed by compound washout and measured after 48 hrs by CCK8 assay; type: cell-based; conditions: mcf7, 48 h
[19] = test system: A-375; experiment: Dark toxicity against human A375 cells up to 500 nM preincubated for 5 hrs followed by compound washout and measured after 48 hrs by CCK8 assay; type: cell-based; conditions: a-375, 48 h
[20] = test system: H22; experiment: Dark toxicity against mouse H22 cells up to 500 nM preincubated for 5 hrs followed by compound washout and measured after 48 hrs by CCK8 assay; type: cell-based; conditions: h22, 48 h
[21] = test system: MCF7; experiment: Induction of reactive oxygen species generation in human MCF7 cells up to 200 nM preincubated for 5 hrs followed by compound washout and subsequent 3 mW/cm2 UVA irradiation measured 10 mins post irradiation by DCFH-DA probe based fluorescence microscopic analysis; type: functional, cell-based
[22] = test system: H22; experiment: Induction of immunogenic cell death in mouse H22 cells assessed as extracellular ATP level at 250 nM preincubated for 5 hrs followed by compound washout and subsequent 2 mW/cm2 UVA irradiation for 20 mins measured 2 hrs post irradiation by chemiluminescence-based assay; type: functional
[23] = test system: H22; experiment: Induction of immunogenic cell death in mouse H22 cells assessed as […] in extracellular ATP level at 250 nM incubated for 5 hrs followed by compound washout and subsequent 2 mW/cm2 UVA irradiation measured 5 hrs post irradiation by chemiluminescence-based assay; type: functional
[24] = test system: H22; experiment: (§1) Induction of immunogenic cell death in mouse H22 cells assessed as extracellular HMGB1 level at 120 to 250 nM preincubated for 5 hrs followed by compound washout and subsequent 2 mW/cm2 UVA irradiation measured 2 hrs post irradiation by ELISA; type: functional
[25] = test system: H22; experiment: Dark toxicity in mouse H22 cells assessed as increase in extracellular HMGB1 level at 120 to 250 nM incubated for 5 hrs by ELISA; type: cell-based; conditions: h22, 5 h, 0.25 µM
[26] = test system: H22; experiment: as §1, with “increase in intracellular calreticulin” for “extracellular HMGB1”, “60” for “120”, “Hoechst staining based fluorescence microscopic analysis” for “ELISA”; type: functional
[27] = test system: H22; experiment: Antitumor activity against mouse H22 cells allografted in immunocompetent Balb/c mouse assessed as inhibition of tumour formation at 60 nM incubated with cells for 5 hrs prior to 20 mins 2 mW/cm2 UVA irradiation post compound washout followed by vaccination and measured over 10 days; type: functional, cell-based
[28] = test system: H22; experiment: Antitumor activity against mouse H22 cells allografted in immunocompetent Balb/c mouse assessed as inhibition of tumour formation at 60 nM incubated with cells for 5 hrs prior to 20 mins 2 mW/cm2 UVA irradiation post compound washout followed by vaccination and measured over 20 days; type: functional, cell-based
[29] = test system: H22; experiment: Antitumor activity against mouse H22 cells allografted in immunocompetent Balb/c mouse assessed as inhibition of tumour formation at 250 nM incubated with cells for 5 hrs prior to 20 mins 2 mW/cm2 UVA irradiation post compound washout followed by vaccination and measured within 5 days; type: functional, cell-based
[30] = test system: H22; experiment: (§2) Antitumor activity against mouse H22 cells allografted in immunocompetent Balb/c mouse assessed as decrease in tumour formation at challenge site at 250 nM incubated with cells for 5 hrs followed by compound washout before 2 mW/cm2 UVA irradiation for 20 mins and followed by vaccination and subsequent H22 cells addition 10 days post vaccination and measured on day 25; type: functional, cell-based
[31] = test system: H22; experiment: as §2, with “after 2 weeks” for “on day 25”; type: functional, cell-based
[32] = test system: H22; experiment: as §2, with “after 2 months” for “on day 25”; type: functional, cell-based
[33] = Toxicity in immunocompetent BALB/c mouse allografted with mouse H22 cells assessed as change in body weight at 250 nM incubated with cells for 5 hrs followed by compound washout before 2 mW/cm2 UVA irradiation for 20 mins and followed by vaccination and subsequent H22 cells addition 10 days post vaccination and measured over 30 days; conditions: 0.25 µM
[34] = test system: H22; experiment: Antitumor activity against mouse H22 cells allografted in immunocompetent Balb/c mouse assessed as decrease in lump formation at vaccination site at 250 nM incubated with cells for 5 hrs prior to 20 mins 2 mW/cm2 UVA irradiation post compound washout followed by vaccination and measured over 30 days; type: functional, cell-based
[35] = test system: H22; experiment: Induction of immunogenic cell death in mouse H22 cells assessed as increase in intracellular calreticulin level at 60 to 250 nM preincubated for 5 hrs followed by compound washout and subsequent 2 mW/cm2 UVA irradiation for 20 mins measured 2 hrs post irradiation by flow cytometric analysis; type: functional, cell-based
[36] = test system: H22; experiment: Dark toxicity in mouse H22 cells assessed as increase in intracellular calreticulin level at 60 to 250 nM measured after 5 hrs by flow cytometric analysis; type: cell-based; conditions: h22, 5 h, 0.25 µM

O=C1c2c(O)ccc(O)c2C(=O)c2c(NCCNCCO)ccc(NCCNCCO)c21 [MITOXANTRONE] showed an IC50 [1] of 117 nM, an IC90 [1] of 1300 nM and an IC50 [2] of 380 nM. For the same compound, the IC50 [3] was 112 nM, the IC50 at 5 h [4] was 187 nM and the Activity [5] was “inactive”. For the same compound, the Activity [6] was 9 nM, the Activity [7] was “inactive” and the Activity [8] was “Active”. For the same compound, the inhibition [9] was “Active”, the inhibition [10] was “inactive” and the Activity [11] was “Active”. The Activity [12] was “Active”.
In the case of Cc1cn([C@H]2C[C@H](n3cc(CNC(=O)CCCCCOc4ccc5c(c4)-c4nc6cc7ccccc7cc6nc4[C@@H]4C(C)(C)CCC[C@]54C)nn3)[C@@H](CO)O2)c(=O)[nH]c1=O, the IC50 [13] is reported as 44.3 nM, the IC50 [14] is reported as 49.6 nM and the IC50 [15] is reported as 44 nM. The IC50 [16] was 32 nM, the Activity [17] was “Non-Toxic” and the Activity [18] was “Non-Toxic”. The Activity [19] was “Non-Toxic” and the Activity [20] was “Non-Toxic”.
With C=CC1=C(C)c2cc3[nH]c(cc4nc(cc5[nH]c(cc1n2)c(C)c5CCC(=O)O)C(CCC(=O)O)=C4C)c(C)c3C=C [PROTOPORPHYRIN] the IC50 [13] was 310 nM.
Work on Cc1cn([C@H]2C[C@H](n3cc(CNC(=O)CCCCCOc4ccc5c(c4)-c4nc6ccccc6nc4[C@@H]4C(C)(C)CCC[C@]54C)nn3)[C@@H](CO)O2)c(=O)[nH]c1=O yielded an IC50 [13] of 251 nM.
Work on Cc1cn([C@H]2C[C@H](n3cc(CNC(=O)CCCCCOc4ccc5c(c4)-c4nc6cc7ccccc7cc6nc4[C@H]4C(C)(C)CCC[C@]54C)nn3)[C@@H](CO)O2)c(=O)[nH]c1=O yielded an IC50 [13] of 26.6 nM, an IC50 [14] of 23.5 nM and an IC50 [15] of 25.3 nM. The IC50 [16] was 28.8 nM, the Activity [17] was “Non-Toxic” and the Activity [18] was “Non-Toxic”. For the same compound, the Activity [19] was “Non-Toxic”, the Activity [20] was “Non-Toxic” and the Activity [21] was “Active”. For the same compound, the Activity [22] was 335 nM, the Activity [23] was “Active” and the Activity [24] was 3 ng/mL. The Activity [25] was “Non-Toxic”, the Activity [26] was “Active” and the inhibition [27] was “inactive”. The inhibition [28] was “inactive”, the inhibition [29] was “Active” and the inhibition [30] was “Active”. The inhibition [31] was “Active”, the inhibition [32] was “Active” and the Activity [33] was “Non-Toxic”. The Activity [34] was “Active”, the Activity [35] was “Active” and the Activity [36] was “Non-Toxic”.
